# Measurements published in patent US7550471B2, “5-alkyl-7-aminotriazolopyrimidines, methods and intermediary product necessary for the production thereof, agents containing said compounds and the use thereof for fighting against harmful mushrooms” (BASF Aktiengesellschaft, priority 2002, dated 2009).
# System: Alternaria solani
# Assay: Activity against early blight of tomato caused by Alternaria solani
# Format: in vivo
# Conditions: 250 ppm active compound, tomato plants sprayed one day before infection, assessed after 5 days; untreated plants 90% infected
# Method: The active compounds were formulated separately as a stock solution comprising 0.25% by weight of active compound in acetone or DMSO. 1% by weight of the emulsifier Uniperol® EL (wetting agent having emulsifying and dispersing action based on ethoxylated alkylphenols) was added to this solution. The stock solutions of the active compounds were diluted with water to the stated concentration. Leafs of potted plants of the cultivar “Groβe Fleischtomate St. Pierre” were sprayed to run off point with an aqueous suspension having the concentration of active compound stated below. The next day, the leaves were infected with an aqueous spore suspension of Alternaria solani in a 2% strength biomalt solution of a density of 0.17×10^6 spores/ml. The plants were then placed in a water-vapor-saturated chamber at 20-22° C. After 5 days, the early blight on the untreated but infected control plants had developed to such an extent that the infection could be determined visually in %.
compound,measurement,value
"Cc1nc2ncnn2c(N2CCC(C)CC2)c1C1CCCC1 [Compound I-1, 5-methyl-6-cyclopentyl-7-(4-methyl-piperidin-1-yl)-[1,2,4]triazolo[1,5-a]pyrimidine]","infection (early blight, determined visually in %)",no infection
